This passage reports microsomal CLint and half-life results from US11147802B2, “Substituted oxadiazole chemical compound and composition containing said chemical compound and use thereof” (Shenzhen TargetRx, Inc., priority 2016, dated 2021).

A short description of data set [1]: Metabolic stability in human liver microsomes. Format: in vitro ADME. Particulars: pH 7.4, 1 μM compound, 0.5 mg/mL protein, 37° C.; for half-life at 1 μM: read-out: Human liver microsomes t1/2. As to the method: (§1) Metabolic Stability Evaluation
(§2) Experiments in microsomes: Human liver microsomes: 0.5 mg/mL, Xenotech; Rat liver microsomes: 0.5 mg/mL, Xenotech; Coenzyme (NADPH/NADH): 1 mM, Sigma Life Science; Magnesium chloride: 5 mM, 100 mM phosphate buffer (pH 7.4).
(§3) Preparation of stock solution: Powder of the example compound was accurately weighed and dissolved in DMSO to 5 mM.
(§4) Preparation of phosphate buffer (100 mM, pH7.4): A pre-formulated 0.5M potassium dihydrogen phosphate (150 mL) was mixed with 0.5M dibasic potassium phosphate (700 mL). The pH of the mixture was adjusted to 7.4 with 0.5M dibasic potassium phosphate solution. The mixture was diluted 5-fold with ultrapure water before use, and magnesium chloride was added to obtain a phosphate buffer (100 mM) containing 100 mM potassium phosphate, 3.3 mM magnesium chloride, pH 7.4.
(§5) A NADPH regeneration system solution (containing 6.5 mM NADP, 16.5 mM G-6-P, 3 U/mL G-6-PD, 3.3 mM magnesium chloride) was prepared and placed on wet ice prior to use.
(§6) Preparation of stop solution: acetonitrile solution containing 50 ng/mL propranolol hydrochloride and 200 ng/mL tolbutamide (internal standard). 25057.5 μL of phosphate buffer (pH 7.4) was taken into a 50 mL centrifuge tube, to which 812.5 μL human liver microsomes were added, and mixed to obtain a liver microsome dilution solution with a protein concentration of 0.625 mg/mL. 25057.5 μL of phosphate buffer (pH 7.4) was taken into a 50 mL centrifuge tube, to which 812.5 μL SD rat liver microsomes were added, and mixed to obtain a liver microsome dilution solution with a protein concentration of 0.625 mg/mL.
(§7) Incubation of the samples: The stock solution of the respective compound was respectively diluted to 0.25 mM with an aqueous solution containing 70% acetonitrile, and used as a working solution, ready for use. 398 μL of the dilution solution of human liver microsomes or rat liver microsome were added to a 96-well incubation plate (N=2), respectively, and 2 μL of 0.25 mM working solution was added and mixed.
(§8) Metabolic stability assay: 300 μL of pre-chilled stop solution was added to each well of a 96-well deep well plate and placed on ice as a stop plate. The 96 well incubation plate and NADPH regeneration system were placed in a 37° C. water bath box, shaken at 100 rpm and pre-incubated for 5 min. 80 μL of incubation solution was taken out from each well of the incubation plate and added to the stop plate, mixed, and replenished with 20 μL of NADPH regeneration system solution as a 0-min sample. 80 μL of NADPH regeneration system solution was added to each well of the incubation plate to start the reaction and start counting. […] Separately, 100 μL of the reaction solution was taken at 10, 30, and 90 min reaction, respectively, added to a stop plate, and vortexed for 3 minutes to terminate the reaction. The stop plate was centrifuged at 5000×g at 4° C. for 4 min. 100 μL of the supernatant was added to a 96-well plate to which 100 μL of distilled water was previously added, mixed, and analyzed by LC-MS/MS.
(§9) Data analysis: The peak areas of the corresponding compound and internal standard were detected by LC-MS/MS system, and the ratio of the peak area of the compound to the internal standard was calculated.
For orientation: Microsomes from liver hold many membrane-bound enzymes, among them those of drug oxidation.

The nature of data set [2]: Metabolic stability in rat liver microsomes. The conditions noted are these: Sprague-Dawley (SD), pH 7.4, 1 μM compound, 0.5 mg/mL protein, 37° C.; for half-life at 1 μM: read-out: Rat liver microsomes t1/2. Format: in vitro ADME. As to the method: as §1, §2, §3, §4, §5, §6, §7, §8, §9

Usually microsomal CLint stands for a measure of how fast metabolising enzymes remove a compound, apart from limits set by blood flow. For the compound `[2H]c1c([2H])c(/N=C(/NO)c2nonc2NCC([2H])([2H])NS(N)(=O)=O)c([2H])c(Br)c1F` [Compound 76, 4-({2-[(sulfamoyl)amino]-1,1-d2-ethyl}amino)-N-(2,5,6-d3-3-bromo-4-fluoro-phenyl)-N′-hydroxy-1,2,5-oxadiazole-3-carboximidamide], the results for the intrinsic clearance (microsomal CLint) at 1 μM in data set [1] and in data set [2] were under 9.6 µL/min/mg and 22.6 µL/min/mg, respectively. Also, the values for the half-life at 1 μM in data set [1] and in data set [2] were over 2.5 h and 1.02 h, respectively.

Regarding `[2H]c1cc(F)c(Br)c([2H])c1/N=C(/NO)c1nonc1NCCNS(N)(=O)=O` [Compound 22], in data set [1], the microsomal CLint at 1 μM is under 9.6 µL/min/mg and the half-life at 1 μM is over 2.5 h. Besides, in data set [2], the microsomal CLint at 1 μM was 19.6 µL/min/mg and the half-life at 1 μM is 1.18 h.

For the compound `NS(=O)(=O)NCCNc1nonc1C(=NO)Nc1ccc(F)c(Br)c1` [Epacadostat, reference compound], the figures for the microsomal CLint at 1 μM in data set [1] and in data set [2] were 9.6 µL/min/mg and 20.1 µL/min/mg, respectively. Moreover, the values for the half-life at 1 μM in data set [1] and in data set [2] were 2.4 h and 1.15 h, respectively.

For `[2H]c1cc(/N=C(/NO)c2nonc2NC([2H])([2H])C([2H])([2H])NS(N)(=O)=O)cc(Br)c1F` [Compound 52], the microsomal CLint at 1 μM was under 9.6 µL/min/mg in data set [1] and 19.2 µL/min/mg in data set [2]. Moreover, the half-life at 1 μM in data set [1] was over 2.5 h; in data set [2], 1.2 h.

With `[2H]C([2H])(CNS(N)(=O)=O)Nc1nonc1/C(=N\c1ccc(F)c(Br)c1)NO` [Compound 11], in data set [1], the microsomal CLint at 1 μM is under 9.6 µL/min/mg and the half-life at 1 μM is over 2.5 h. Besides, in data set [2], the microsomal CLint at 1 μM came out at 18.9 µL/min/mg and the half-life at 1 μM worked out at 1.22 h.

On to `[2H]c1cc(F)c(Br)c([2H])c1/N=C(/NO)c1nonc1NC([2H])([2H])C([2H])([2H])NS(N)(=O)=O` [Compound 57, 4-({2-[(sulfamoyl)amino]-1,1,2,2-d4-ethyl}amino)-N-(2,6-d2-3-bromo-4-fluoro-phenyl)-N′-hydroxy-1,2,5-oxadiazole-3-carboximidamide], for which, in data set [1], the microsomal CLint at 1 μM is under 9.6 µL/min/mg and the half-life at 1 μM is over 2.5 h.

`[2H]C([2H])(Nc1nonc1/C(=N\c1ccc(F)c(Br)c1)NO)C([2H])([2H])NS(N)(=O)=O` [Compound 47, 4-({2-[(sulfamoyl)amino]-1,1,2,2-d4-ethyl}amino)-N-(3-bromo-4-fluorophenyl)-N′-hydroxy-1,2,5-oxadiazole-3-carboximidamide]: in data set [1], the intrinsic metabolic clearance (microsomal CLint) at 1 μM is under 9.6 µL/min/mg and the half-life at 1 μM is over 2.5 h. In data set [2], the intrinsic metabolic clearance (microsomal CLint) at 1 μM came to 18.7 µL/min/mg and the half-life at 1 μM turned out to be 1.23 h.

For the compound `[2H]c1c([2H])c(/N=C(/NO)c2nonc2NCCNS(N)(=O)=O)c([2H])c(Br)c1F` [Compound 66], the microsomal CLint at 1 μM in data set [1] was under 9.6 µL/min/mg; in data set [2], 17.5 µL/min/mg. Besides, the half-life at 1 μM is over 2.5 h in data set [1] and 1.32 h in data set [2].

Turning to `[2H]C([2H])(CNc1nonc1/C(=N\c1ccc(F)c(Br)c1)NO)NS(N)(=O)=O` [Compound 41, 4-({2-[(sulfamoyl)amino]-2,2-d2-ethyl}amino)-N-(3-bromo-4-fluorophenyl)-N′-hydroxy-1,2,5-oxadiazole-3-carboximidamide], in data set [1], the microsomal CLint at 1 μM is under 9.6 µL/min/mg and the half-life at 1 μM was over 2.5 h. In data set [2], the microsomal CLint at 1 μM was 21 µL/min/mg and the half-life at 1 μM was determined as 1.1 h.

Consider `[2H]c1c([2H])c(/N=C(/NO)c2nonc2NC([2H])([2H])C([2H])([2H])NS(N)(=O)=O)c([2H])c(Br)c1F` [Compound 71, 4-({2-[(sulfamoyl)amino]-1,1,2,2-d4-ethyl}amino)-N-(2,5,6-d3-3-bromo-4-fluoro-phenyl)-N′-hydroxy-1,2,5-oxadiazole-3-carboximidamide], for which, in data set [1], the microsomal CLint at 1 μM is under 9.6 µL/min/mg and the half-life at 1 μM was over 2.5 h. Further, in data set [2], the microsomal CLint at 1 μM amounted to 20.5 µL/min/mg and the half-life at 1 μM was 1.13 h.

As to `[2H]c1cc(/N=C(/NO)c2nonc2NCCNS(N)(=O)=O)cc(Br)c1F` [Compound 32, 4-({2-[(sulfamoyl)amino]ethyl}amino)-N-(3-bromo-4-fluoro-5-d-phenyl)-N′-hydroxy-1,2,5-oxadiazole-3-carboximidamide], in data set [1], the microsomal CLint at 1 μM was under 9.6 µL/min/mg and the half-life at 1 μM was over 2.5 h. Also, in data set [2], the microsomal CLint at 1 μM came out at 21.3 µL/min/mg and the half-life at 1 μM came to 1.08 h.

Consider `[2H]c1cc(F)c(Br)c([2H])c1/N=C(/NO)c1nonc1NC([2H])([2H])CNS(N)(=O)=O` [Compound 81, 4-({2-[(sulfamoyl)amino]-1,1-d2-ethyl}amino)-N-(2,6-d2-3-bromo-4-fluoro-phenyl)-N′-hydroxy-1,2,5-oxadiazole-3-carboximidamide], for which the results for the microsomal CLint at 1 μM in data set [1] and in data set [2] were under 9.6 µL/min/mg and 18.5 µL/min/mg, respectively. Moreover, the half-life at 1 μM is over 2.5 h in data set [1] and 1.25 h in data set [2].
